Experimental findings from ChEMBL document CHEMBL4665623, “Rational drug design for androgen receptor and glucocorticoids receptor dual antagonist” (Eur J Med Chem, 2019) are described below.

Data set [1] concerns the target T1, Androgen receptor (Homo sapiens) (UniProt P10275).
T1 sequence (whole entry): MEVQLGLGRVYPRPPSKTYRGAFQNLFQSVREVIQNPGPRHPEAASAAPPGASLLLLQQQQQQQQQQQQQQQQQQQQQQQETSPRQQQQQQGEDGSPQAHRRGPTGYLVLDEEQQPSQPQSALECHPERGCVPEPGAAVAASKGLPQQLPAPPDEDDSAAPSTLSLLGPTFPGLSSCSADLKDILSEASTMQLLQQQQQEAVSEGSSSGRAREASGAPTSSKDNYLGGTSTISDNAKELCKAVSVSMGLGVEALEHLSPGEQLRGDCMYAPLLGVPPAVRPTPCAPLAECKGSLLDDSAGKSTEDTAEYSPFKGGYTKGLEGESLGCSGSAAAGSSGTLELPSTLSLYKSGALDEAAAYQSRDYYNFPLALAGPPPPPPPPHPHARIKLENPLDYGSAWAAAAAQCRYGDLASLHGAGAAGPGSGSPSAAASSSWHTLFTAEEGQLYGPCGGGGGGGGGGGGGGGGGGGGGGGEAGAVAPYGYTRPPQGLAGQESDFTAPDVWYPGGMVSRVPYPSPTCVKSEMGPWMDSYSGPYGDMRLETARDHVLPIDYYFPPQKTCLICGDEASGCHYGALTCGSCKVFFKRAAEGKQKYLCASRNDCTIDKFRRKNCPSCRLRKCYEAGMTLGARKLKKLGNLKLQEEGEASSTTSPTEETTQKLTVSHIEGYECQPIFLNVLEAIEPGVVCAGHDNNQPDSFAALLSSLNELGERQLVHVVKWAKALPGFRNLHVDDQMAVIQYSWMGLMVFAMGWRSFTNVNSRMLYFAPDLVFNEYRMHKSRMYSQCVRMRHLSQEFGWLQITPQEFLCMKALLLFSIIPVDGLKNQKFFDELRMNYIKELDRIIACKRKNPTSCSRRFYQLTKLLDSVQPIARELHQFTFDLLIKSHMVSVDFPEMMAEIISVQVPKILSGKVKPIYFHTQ
As to the kind of experiment: Antagonist activity at recombinant androgen receptor (unknown origin) transfected in human PC-3 cells co-transfected with PSA and luciferase at 10 uM incubated for 24 hrs by dual luciferase reporter gene assay relative to control. Type of data set: cell-based. For orientation: A reporter such as luciferase makes a cellular process visible.

Data set [2] can be described thus: Effect on androgen receptor expression in human LNCaP cells at 1 and 10 uM incubated for 24 hrs by Western blot analysis. The data set is classed as ADME, cell-based. To be noted: dose 1-10 µM. In general terms: A western blot detects proteins with antibodies after separation by electrophoresis.
The nature of data set [3]: Effect on glucocorticoid receptor expression in human PC-3 cells at 10 uM incubated for 24 hrs by Western blot analysis. To be noted: pc-3, 24 h. The data set is classed as ADME, cell-based.
For data set [4], the target named is T2, Androgen receptor (Homo sapiens, UniProt P10275).
T2 sequence (P10275 whole entry): T1 sequence (whole entry)
As to the kind of experiment: Antagonist activity at recombinant androgen receptor (unknown origin) transfected in human LNCaP cells co-transfected with PSA and luciferase incubated for 24 hrs by dual luciferase reporter gene assay. The data set is classed as cell-based.

Data set [5] concerns the target T3, Androgen receptor (Rattus norvegicus) (UniProt P15207).
T3 sequence (whole entry): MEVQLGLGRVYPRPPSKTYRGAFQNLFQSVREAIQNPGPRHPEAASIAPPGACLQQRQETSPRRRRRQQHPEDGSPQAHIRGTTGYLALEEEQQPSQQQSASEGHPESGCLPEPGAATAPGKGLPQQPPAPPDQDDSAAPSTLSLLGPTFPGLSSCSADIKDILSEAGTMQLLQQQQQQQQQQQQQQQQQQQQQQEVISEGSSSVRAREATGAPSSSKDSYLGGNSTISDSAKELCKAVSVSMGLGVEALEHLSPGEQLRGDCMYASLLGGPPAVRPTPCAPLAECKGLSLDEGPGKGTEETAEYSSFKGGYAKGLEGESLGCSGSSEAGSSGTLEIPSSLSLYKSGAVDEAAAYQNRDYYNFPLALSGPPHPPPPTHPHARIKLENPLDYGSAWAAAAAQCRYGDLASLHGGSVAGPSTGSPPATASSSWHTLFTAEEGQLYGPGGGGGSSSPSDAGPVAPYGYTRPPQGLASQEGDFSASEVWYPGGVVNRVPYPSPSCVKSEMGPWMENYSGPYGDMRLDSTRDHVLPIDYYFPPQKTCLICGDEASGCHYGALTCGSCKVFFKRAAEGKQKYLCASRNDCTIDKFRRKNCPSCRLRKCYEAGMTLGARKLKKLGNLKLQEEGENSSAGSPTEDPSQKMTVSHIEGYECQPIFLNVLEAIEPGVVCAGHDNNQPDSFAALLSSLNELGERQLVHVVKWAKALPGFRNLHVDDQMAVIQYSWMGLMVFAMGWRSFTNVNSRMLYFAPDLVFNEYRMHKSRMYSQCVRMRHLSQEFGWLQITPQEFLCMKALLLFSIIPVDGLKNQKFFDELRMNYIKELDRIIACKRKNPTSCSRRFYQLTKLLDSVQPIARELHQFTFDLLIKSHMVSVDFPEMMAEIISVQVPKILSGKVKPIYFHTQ
The conditions noted are these: filed as antagonist, time 1.0 min.

Data set [6] has as its target T4, Glucocorticoid receptor (Homo sapiens) (UniProt P04150).
T4 sequence (whole entry): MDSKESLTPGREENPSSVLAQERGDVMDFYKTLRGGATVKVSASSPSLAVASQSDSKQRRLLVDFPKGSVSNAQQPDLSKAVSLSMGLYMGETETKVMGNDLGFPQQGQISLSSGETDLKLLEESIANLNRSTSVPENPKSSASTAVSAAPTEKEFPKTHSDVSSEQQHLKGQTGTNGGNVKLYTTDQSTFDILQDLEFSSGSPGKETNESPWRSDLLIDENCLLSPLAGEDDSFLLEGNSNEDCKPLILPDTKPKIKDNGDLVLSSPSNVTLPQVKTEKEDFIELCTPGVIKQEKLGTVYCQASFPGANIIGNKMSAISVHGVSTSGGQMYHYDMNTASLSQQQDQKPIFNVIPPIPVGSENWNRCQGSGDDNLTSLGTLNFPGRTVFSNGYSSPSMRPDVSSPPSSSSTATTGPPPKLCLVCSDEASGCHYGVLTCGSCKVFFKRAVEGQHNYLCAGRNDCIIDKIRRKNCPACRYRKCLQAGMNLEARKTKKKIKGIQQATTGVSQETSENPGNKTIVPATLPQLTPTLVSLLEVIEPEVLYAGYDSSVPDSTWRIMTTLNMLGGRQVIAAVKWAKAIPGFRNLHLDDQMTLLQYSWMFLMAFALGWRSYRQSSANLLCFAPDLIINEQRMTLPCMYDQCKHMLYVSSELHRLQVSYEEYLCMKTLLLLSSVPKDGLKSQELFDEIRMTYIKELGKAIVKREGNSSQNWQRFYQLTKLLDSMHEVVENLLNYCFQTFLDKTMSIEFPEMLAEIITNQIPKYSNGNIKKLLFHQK
To be noted: filed as antagonist, time 1.0 min.

The test system of data set [7] is LNCaP. As to the kind of experiment: Antiproliferative activity against human LNCAP cells assessed as reduction in cell growth incubated for 72 hrs by MTT assay. For orientation: Tetrazolium assays rely on reduction of a dye to a coloured formazan, in cell work by metabolically active cells.
Data set [8] can be described thus: Antiproliferative activity against human 22Rv1 cells assessed as reduction in cell growth incubated for 72 hrs by MTT assay. The conditions noted are these: H22, 72 h.

One may read the inhibition as the share of the control response that was lost under treatment. As to `Cc1nc(-c2ccc(C(C)C)c(S(=O)(=O)Nc3cccc(C#N)c3)c2)cs1`, the inhibition in data set [1] was above 20%.

A word on the IC50: it is the point on the concentration scale where inhibition reaches its midpoint. With `CCOC(=O)c1ccc(NC(=O)c2cccc(S(=O)(=O)N3CCCc4ccccc43)c2)s1`, the Activity result in data set [2] and in data set [3] was “Non-Toxic” in each case. In addition, the IC50 in data set [4] stood at 2030 nM. Also, the Kapp in data set [5] was 15 µM.

`COc1ccc([C@H](NC(=O)c2cccc(S(=O)(=O)N3C[C@H](C)C[C@@H](C)C3)c2)c2nccn2C)cc1`: the inhibition in data set [1] was above 20%.

For the molecule `CCOC(=O)C1CCN(C(=O)Cc2ccc(N(Cc3ccccc3)C(=O)COc3ccccc3)cc2)CC1`, in data set [1], the inhibition was above 20%.

Take `NC(=O)c1ccn(-c2cccc(NC(=O)C3(NC(=O)NCc4ccccc4)CCCC3)c2)n1`: the inhibition in data set [1] is above 20%.

As for `COc1cccc(-c2ccc(N3CCN(C(=O)CN(Cc4ccccc4)C(=O)c4ccccc4C)CC3)nn2)c1`, the inhibition in data set [1] was above 20%.

For `COc1ccccc1[C@H]1[C@H](Oc2cccc(C#N)c2)C(=O)N1Cc1cccc(N2CCCC2=O)c1`, the inhibition in data set [1] is above 20%.

Take `CC#C[C@]1(O)CC[C@H]2[C@@H]3CCC4=CC(=O)CCC4=C3[C@@H](c3ccc(N(C)C)cc3)C[C@@]21C`: in data set [6], the Kapp worked out at 32 µM.

For the molecule `COc1cc2cc(C(=O)N[C@H](C)C(=O)Nc3nc4ccccc4s3)[nH]c2c(OC)c1OC`, the inhibition in data set [1] is above 20%.

With `CCc1ccc(-c2nn(C)c(=O)c3c2CCCC3)cc1S(=O)(=O)NCc1cccc(OC)c1`, the inhibition in data set [1] is above 20%.

Turning to `CNC(=O)c1ccc(N2C(=S)N(c3ccc(C#N)c(C(F)(F)F)c3)C(=O)C2(C)C)cc1F` [ENZALUTAMIDE], the values for the IC50 in data set [7] and in data set [8] were 7.9 µM and above 40 µM, respectively. For the same molecule, the Kapp in data set [5] was 24 µM.
